This note sets out measurements from patent publication US20180055816A1, “PYRANONAPHTHOQUINONE COMPOUNDS AND METHODS OF USE THEREOF” (University of Kentucky Research Foundation, priority 2016, published 2018).

In one series the test system is HCT116 cells. The series is described as follows: Cell growth / cytotoxicity in HCT116 cells. It counts as cell-based, human. The note with it: HCT116; 0.5 μM FB or UCF76-A versus 100 nM rapamycin, 0.5 μM AZD8055. How it is done:
(§1) Compounds that pass this single dose filter are then tested in a CRC (HCT116) in vitro cytotoxicity assay and, in parallel, an in vitro assay to assess propensity for intracellular reactive oxygen species (ROS) production using the redox sensitive probe CeIIROX® Deep Red reagent (Invitrogen) by flow cytometry analysis (47).
(§2) Cell growth was assessed as described previously. Briefly, 5×10^4 cells were seeded in 6-well plates in triplicates. After 24 h, cells were treated with the indicated compounds and incubated at 37° C. The cells were cultured for 3 days and the number of viable cells was counted using the Vi-CELL XR 2.03 (Beckman Coulter, Brea, Calif.). For apoptosis, cells were analyzed by flow cytometry using the Annexin V-FITC Apoptosis Detection Kit according to the manufacturer's protocol (BD Biosciences, San Jose, Calif.).

Series [1] concerns colorectal cancer (CRC) cell lines. The series is described as follows: Cytotoxicity against a panel of colorectal cancer cell lines. It counts as cell-based, human. Conditions: 72 h.
Text: Human colon (HCT116, DLD-1, T84, HCT15, RKO, SW620) and breast (MDA-MB-231) cancer cell lines were obtained from the American Type Culture Collection (ATCC, Manassas, Va.) and cultured in the appropriate medium with supplements as recommended by ATCC. […] In addition, all the cell lines are routinely checked for morphologic and growth changes, to probe for cross-contaminated, or genetically drifted cells. If any of these features occur, we use the short tandem repeat (STR) profiling service by ATCC to re-authenticate the cell lines. HCT116 cells with stable knockdown of 4E-BP1 and its control stable transfectants were generated as described previously {Ye, 2014 #1007}. For transient transfection, cells were transiently transfected with DNA using Lipofectamine 3000 according to the manufacturer's protocol (Life Technologies, Carlsbad, Calif.).
as §2

In the next series the target is T1, Prx1 (Homo sapiens, UniProt Q06830).
T1 sequence (Q06830 1-199): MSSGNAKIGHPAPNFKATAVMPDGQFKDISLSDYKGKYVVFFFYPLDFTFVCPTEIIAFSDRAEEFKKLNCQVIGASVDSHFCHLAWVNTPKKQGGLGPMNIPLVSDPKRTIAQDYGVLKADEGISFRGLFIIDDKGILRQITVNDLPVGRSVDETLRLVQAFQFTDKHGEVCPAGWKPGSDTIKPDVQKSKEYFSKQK
In words: Prx1 catalytic activity inhibition. It counts as biochemical. The note with it: recombinant Prx1, 1 hour incubation. How it is done:
The recombinant Prx1 protein was incubated with the indicated concentration of FB, 12, or conoidin A for 1 hour. Data are presented as mean±s.e.m. (n=3 technical replicates per condition). […]. Statistical significance was determined by the Student's t-test.
Prx1 and Grx3 are antioxidant enzymes known to regulate oxidative stress. Prx1 catalyzes peroxide reduction of H2O2, whereas Grx3 functions as glutathione (GSH)-dependent oxidoreductase by participating in the conversion of reduced GSH to oxidized glutathione disulfide (GSSG). […] While Grx3 biochemical assays are lacking, FB and active analogs could lead to a decrease in GSH levels and an increase in GSSG levels in HCT116 cells (FIGS. 23A-B). As antioxidant enzymes utilize cysteine-containing active sites to reduce various cellular peroxide or disulfide substrates, the role of Prx1/Grx3 cysteines in FB ligand-binding was assessed through replacing their cysteines to alanines. […] Finally, mass spectrometry analysis confirmed the covalent modification of Prx1 and Grx3 by FB at these specific target sites. These cumulative studies provide strong validation of Prx1 and Grx3 as the predominate molecular targets of PNQs in cancer cells.

For series [2], the system named is intracellular reactive oxygen species (ROS). The series is described as follows: Intracellular ROS production, CellROX Deep Red flow cytometry, HCT116 cells. It counts as cell-based, human. The note with it: HCT116, 2 μM, 1 h. How it is done: as §1
The ROS production was determined using the CellROX Deep Red Flow Cytometry Assay Kit according to the manufacturer's protocol (Life Technologies). Briefly, cells were treated with 2 μM of the indicated compounds or DMSO as control for 1 h. After treatment, cells were incubated with 0.5 μM of CellROX Deep Red reagent for 1 h at 37° C., washed twice with PBS and immediately analyzed by a FACScan flow cytometer. For the measurement of cellular H2O2 level, cells were treated with 2 μM of the indicated compounds for 5 h.
Background: Flow cytometry measures light scatter and fluorescence of single cells or particles in a stream.

The next series concerns GSSG. The series is described as follows: Quantification of glutathione disulfide (GSSG) in HCT116 cells. It counts as cell-based, human. Conditions: HCT116, 2 μM, 5 h. How it is done:
Cells were treated with 2 μM of the indicated compounds or DMSO as control for 5 h. Quantification of GSSG was essentially performed using the manufactures instructions for a microplate assay for GSH/GSSG (Oxford Biomedical Research, Inc, Oxford, Mich.). A total number of 0.5×10^6 cells were collected in 1.5 ml centrifuge tubes containing ice-cold buffer with the thiol scavenger to keep GSSG in its oxidized form. The cells were homogenized with a Teflon pestle and the cell suspension sonicated in icy water for 2-3 minutes. Ice-cold metaphosphoric acid was added to deproteinate the samples. The samples were centrifuged at 1000×g at 4° C. and the supernatants were used for determining the GSSG concentration according to the manufactures protocol using a microplate reader with 405 nm filter. The change in GSSG levels in the indicated compound-treated samples was expressed as fold change compared to control (DMSO) treated samples.

Series [3] has as its system 4E-BP1 phosphorylation. The series is described as follows: Inhibition of 4E-BP1 phosphorylation in HCT116 cells (Western blot). Conditions: 12 h. It counts as cell-based, human. How it is done:
as §1
(§3) Cells were lysed in NP-40 lysis buffer (50 mM Tris-HCl, pH 7.5, 150 mM NaCl, 1 mM EDTA, 1% NP-40, 10% glycerol, protease and phosphatase inhibitor cocktail). Western blot analysis were performed using equivalent total protein loadings as described previously. For immunoprecipitation, the cell lysates were incubated with the indicated antibody overnight followed by incubation with a 50% slurry of protein G sepharose beads for 3 h at 4° C. The beads were washed three times with the lysis buffer, and the immunoprecipitated protein complexes were resuspended in 2× Laemmli sample buffer followed by western blot analysis.
(Immunoblotting shows a protein as a band on a membrane.)

Series [4] concerns 4E-BP1 phosphorylation. In words: 4E-BP1 phosphorylation in DLD-1 colon cancer cells (Western blot). Format: cell-based, human. Conditions: DLD-1 cells, 2 μM, 12 hours. How it is done: Cells were treated with 100 nM rapamycin, 0.5 μM AZD8055, 2 μM FB, 2 μM UCF76-A or DMSO control for 12 hours followed by Western blot analysis for the indicated proteins.
as §3

Series [5] has as its system cap-dependent translation. The series is described as follows: Cap-dependent translation bicistronic luciferase reporter assay in HCT116 cells. It counts as cell-based, human. The note with it: 12 h. In general terms: Reporter assays use an easily measured gene product as a stand-in for the process of interest.

The structures appear in SMILES notation.

For the compound `CCCC1OC2CC(=O)OC2C2=C1C(=O)c1c(O)cccc1C2=O` (stereo not drawn) [FB, frenolicin B], the “inhibition of CRC cell growth compared with mTOR inhibitors” value in the series with HCT116 cells is recorded as “more potent than mTOR inhibitors”. The “cytotoxicity against CRC cell lines” value in series [1] is listed as “potent cytotoxicity”; in series [1] (listed as frenolicin B), “potent cytotoxic activity”. Further, the “inhibition of Prx1 catalytic activity” value at Prx1 is “potently inhibit”. Also, the “cellular ROS” value in series [2] was “marked increase”. In addition, the GSSG levels result in the series with GSSG is “increase”. For the same compound, the “inhibition of 4E-BP1 phosphorylation” value is given as “effectively inhibited” with 4E-BP1 phosphorylation [3] and “selectively inhibit” in the series on 4E-BP1 phosphorylation [4]. For the same compound, the “inhibition of cap-dependent translation” value in series [5] was “effectively inhibit”.
